Measured values from patent publication US20230218639A1, “USE OF OXYGENATED CHOLESTEROL SULFATES FOR TREATING NEUROLOGICAL CONDITIONS, NEURODEGENERATIVE DISEASES, AND ADDICTION” (Durect Corporation, priority 2020, published 2023).
“And” between values parts separate entries of the source, which are not always exact repeats. Identical values can stand only once.

Columns and labels:
DNMT3a = DNMT3a (Homo sapiens, UniProt Q9Y6K1); assay: DNMT3a activity assay (Lambda DNA substrate, ^3H-SAM); format: biochemical; conditions: read-out: IC50, DNMT3a activity
Experimental: For the DNMT1 activity assay, the substrate solution, 0.001 mg/ml Poly(dI-dC):Poly(dI-dC) in 50 mM Tris-HCl, pH 7.5, 50 mM NaCl, 5 mM EDTA, 5 mM DTT, 1 mM PMSF, 5% glycerol, 0.01% Brij35, 1% DMSO was used. For the DNMT3a/3b activity assay, 0.0075 mg/ml Lambda DNA in 50 mM Tris-HCl, pH 7.5, 50 mM NaCl, 5 mM EDTA, 5 mM DTT, 1 mM PMSF, 5% glycerol, 1% DMSO, was used. The indicated DNMT1, DNMT3a, or DNMT3b was added to the appropriate substrate solution and gently mixed. […] The mixtures were first incubated for 15 min, then ^3H-SAM was added to the reaction mixture to initiate the reaction, and the mixture was incubated for 60 min at 30° C. Following incubation, the reaction mixture was finally transferred to filter-paper for detection of radioactivity counts.

[1] = system: ^5mCpG in promoter regions, Huh-7 cells; assay: Whole genome bisulfite sequencing (WGBS); format: cell-based, human
Experimental: (§1) Each sample, 2 μg, was sent to EpigenDx, Inc. (Hopkinton, Mass.) for analysis of global methylation bisulfite sequencing. The same samples, 6 μg, were sent to Novogene Co., Ltd (Tianjin, China) for analysis of whole genome bisulfite sequencing (WGBS). Total RNA was isolated using the Promega SV total RNA isolation system (Madison, Wis.) with DNase treatment. Each sample, 2 μg, was used for the first-strand cDNA synthesis as recommended by the manufacturer (Invitrogen, Carlsbad, Calif.). Real-time RT-PCR was performed using SYBR Green as the indicator on ABI 7500 Fast Real-Time PCR System (Applied Biosystems, Foster City, Calif.). Amplifications of β-actin or GAPDH were used as internal controls. Relative messenger RNA (mRNA) expression was quantified with the comparative cycle threshold (Ct) method using the primer set shown in Table 1.1 and was expressed as 2^−ΔΔCt.
Each sample, 5.2 μg of genomic DNA spiked with 26 ng lambda DNA, was fragmented by sonication to 200-300 bp with Covaris S220, followed by end repair and adenylation. Cytosine-methylated barcodes were ligated to sonicated DNA per the manufacturer's instructions. These DNA fragments were treated twice with bisulfite using EZ DNA Methylation-Gold™ Kit (Zymo Research) before the resulting single-strand DNA fragments were PCR amplified using KAPA HiFi Hot Start Uracil and Ready Mix (2×). Library concentration was quantified by Qubit® 2.0 Flurometer (Life Technologies, CA, USA) and quantitative PCR, and the insert size was assayed on an Agilent Bioanalyzer 2100 system.
The library preparations were sequenced on an Illumina Hiseq 2500/4000 or Novaseq platform and 125 bp/150 bp paired-end reads were generated. Image analysis and base calling were performed with Illumina CASAVA pipeline. Trimmomatic (Trimmomatic-0.36) software was used for quality control. Bismark software (version 0.16.3; Krueger F, 2011) was used to perform alignments of bisulfite-treated reads to a reference genome (−×700—dovetail). DSS software (23) was used to identify differentially methylated regions (DMRs). KOBAS software was used to test the statistical enrichment of DMR related genes in the Kyoto Encyclopedia of Genes and Genomes (KEGG) pathways.
Each sample (6 μg) was used for analysis of the whole genome bisulfite sequencing (WGBS).

Huh-7 cells = assay: Real-time RT-PCR gene expression; format: cell-based, human; conditions: Huh-7, HG 72 hours; 25HC3S 6.25-50 μM, 1-8 hours
Experimental: as §1, with “FIGS. 3A-3D. Expression of key genes related to signaling pathways. […] Key Genes and their targeting genes expression were determined by RT-PCR analysis. […] Each” for “Each”, “[…],” for “EpigenDx,”, “Each sample, 2 μg, was used for the first-strand cDNA synthesis as recommended by the manufacturer (Invitrogen, Carlsbad, Calif.).” left out, “2^-ΔΔCt.” for “2^−ΔΔCt.”

[2] = Tissue distribution by quantitative whole body autoradiography, intravenous dose; format: in vivo, Sprague Dawley rats; conditions: intravenous 10 mg/kg
Experimental: (§2) Nine male Sprague Dawley rats (Group 1) were designated for the pharmacokinetic phase, 3 male Sprague Dawley rats (Group 2) for the excretion mass balance phase, and 7 male Sprague Dawley rats (Group 3) and 9 male Long Evans rats (Group 4) for the tissue distribution phase. All animals received a single intravenous dose of [^14C]-25HC3S at 10 mg/kg and a target radioactivity of 225 μCi/kg. Blood samples were collected from all Group 1 animals at approximately 0.083, 0.25, 0.5, 1, 2, 4, 8, 12, 24, 48, and 72 hours post-dose. Urine and feces were collected from all Group 2 animals periodically through 168 hours post-dose. […] Following blood collection, animals were euthanized by CO2 inhalation and carcasses frozen in a dry ice/hexane bath for processing by quantitative whole body autoradiography. Whole blood, plasma, urine, feces, cage rinse, and cage wash were analyzed for total radioactivity by liquid scintillation counting.

[3] = Metabolite profiling of plasma, urine, feces, intravenous dose; format: in vivo, Sprague Dawley rats; conditions: intravenous 10 mg/kg
Experimental: as §2

[4] = set-up: species or system rats; conditions: rat, in vivo, po, 75 mg/kg
Experimental: The terminal elimination phase T1/2 was 27.3 hours.

DNMT3a, sequence (Q9Y6K1 whole entry, looked up): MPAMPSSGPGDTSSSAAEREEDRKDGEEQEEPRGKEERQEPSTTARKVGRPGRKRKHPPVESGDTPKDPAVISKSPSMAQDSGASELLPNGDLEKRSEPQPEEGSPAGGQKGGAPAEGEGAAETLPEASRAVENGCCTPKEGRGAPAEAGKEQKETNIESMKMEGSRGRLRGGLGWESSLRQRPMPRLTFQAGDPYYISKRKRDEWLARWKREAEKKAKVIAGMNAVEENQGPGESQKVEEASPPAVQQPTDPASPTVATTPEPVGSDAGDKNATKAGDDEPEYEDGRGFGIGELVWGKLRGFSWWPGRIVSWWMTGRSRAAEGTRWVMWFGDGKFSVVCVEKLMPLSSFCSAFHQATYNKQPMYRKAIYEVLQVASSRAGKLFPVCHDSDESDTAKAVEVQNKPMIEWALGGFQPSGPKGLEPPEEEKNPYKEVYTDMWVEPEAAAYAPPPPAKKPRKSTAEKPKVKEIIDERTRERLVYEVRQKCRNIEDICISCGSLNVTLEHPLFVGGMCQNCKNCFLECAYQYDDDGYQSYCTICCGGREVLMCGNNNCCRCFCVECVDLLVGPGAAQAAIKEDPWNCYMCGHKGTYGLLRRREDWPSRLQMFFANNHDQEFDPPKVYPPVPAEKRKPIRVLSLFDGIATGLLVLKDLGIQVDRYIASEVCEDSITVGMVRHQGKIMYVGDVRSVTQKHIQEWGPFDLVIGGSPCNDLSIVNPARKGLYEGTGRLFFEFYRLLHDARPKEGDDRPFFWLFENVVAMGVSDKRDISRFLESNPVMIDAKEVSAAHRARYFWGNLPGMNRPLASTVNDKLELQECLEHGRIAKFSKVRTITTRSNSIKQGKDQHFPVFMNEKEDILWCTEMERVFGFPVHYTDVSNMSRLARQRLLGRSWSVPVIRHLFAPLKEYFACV

In the case of `C[C@H](CCCC(C)(C)O)[C@H]1CC[C@H]2[C@@H]3CC=C4C[C@@H](OS(=O)(=O)O)CC[C@]4(C)[C@H]3CC[C@]12C` [25HC3S, 5-Cholesten-3β, 25-diol 3-sulfate], the IC50 (DNMT3a) is reported as 3.03 µM, the “genes with demethylated ^5mCpG in promoter regions, Calcium pathway” value ([1]; of 180 total genes) is reported as 19 genes and the “genes with demethylated ^5mCpG in promoter regions, cAMP pathway” value ([1]; of 200 total genes) is reported as 28 genes. The “genes with demethylated ^5mCpG in promoter regions, MAPK signaling pathway” value ([1]; of 257 total genes) was 23 genes, the “number of KEGG pathways enriched in hypomethylated genes” value ([1]; p<0.05, Huh-7, HG 72 hours, 25 μM 25HC3S 4 hours) was 79 KEGG pathways and 75 KEGG pathways and the “decreased expression of FAS” value (Huh-7 cells) was roughly 90%. For the same compound, the “decreased expression of HMGR” value (Huh-7 cells) was roughly 90%, the “increased expression of CREB5” value (Huh-7 cells) was “up to 20 fold” and the “increased expression of DUSP8” value (Huh-7 cells) was 5 fold. The “increased expression of PGC1A” value (Huh-7 cells) was 12 fold, the AUClast in liver [2] was ≤ 364,000 h ng/g and the “tissues in which radioactivity was detected” value [2] was “all tissues except the eye (lens)”. The “whole blood AUClast” value [2] was 25,200 h*ng-equiv./g, the T1/2 in plasma ([2]; QWBA phase) was 44.3 h and the “T1/2 in whole blood” value ([2]; QWBA phase) was 52.2 h. For the same compound, the “% of dose in feces” value ([3]; 0 to 48 hours post-dose) was 2 % of dose, the “share of exposure (AUC) to 25HC3S related radioactivity in plasma” value ([3]; up to 1 hour post-dose) was “approximately 54%” and the “terminal elimination phase T1/2” value ([4]; Sprague Dawley) was 27.3 h. The “plasma AUClast” value [4] was 96,400 h·ng equiv./g and the “plasma Cmax” value [4] was 3800 ng equiv./g.
